According to US20210070748A1, “INHIBITORS OF BRUTONS TYROSINE KINASE” (Pharmacyclics LLC, priority 2015, published 2021):

Tests used:
Type in all cases: biochemical
EGFR = EGFR (Homo sapiens, UniProt P00533); assay: Inhibition of a panel of kinases, in vitro HotSpot kinase assay: EGFR; conditions: for IC50: 1 μM ATP; for EGFR* IC50 relative to Btk IC50 value: fold relative to Btk IC50 value
Procedure: (§1) The degree of inhibition of a panel of kinases is determined using the in vitro HotSpot kinase assay (purified enzymes, ^33P-ATP, an appropriate substrate and 1 μM ATP).

ITK = biological target: T1, ITK (Homo sapiens, UniProt Q08881); assay: Inhibition of a panel of kinases, in vitro HotSpot kinase assay: ITK; conditions: for IC50: 1 μM ATP; for ITK* IC50 relative to Btk IC50 value: fold relative to Btk IC50 value
T1 sequence (Q08881 1-620): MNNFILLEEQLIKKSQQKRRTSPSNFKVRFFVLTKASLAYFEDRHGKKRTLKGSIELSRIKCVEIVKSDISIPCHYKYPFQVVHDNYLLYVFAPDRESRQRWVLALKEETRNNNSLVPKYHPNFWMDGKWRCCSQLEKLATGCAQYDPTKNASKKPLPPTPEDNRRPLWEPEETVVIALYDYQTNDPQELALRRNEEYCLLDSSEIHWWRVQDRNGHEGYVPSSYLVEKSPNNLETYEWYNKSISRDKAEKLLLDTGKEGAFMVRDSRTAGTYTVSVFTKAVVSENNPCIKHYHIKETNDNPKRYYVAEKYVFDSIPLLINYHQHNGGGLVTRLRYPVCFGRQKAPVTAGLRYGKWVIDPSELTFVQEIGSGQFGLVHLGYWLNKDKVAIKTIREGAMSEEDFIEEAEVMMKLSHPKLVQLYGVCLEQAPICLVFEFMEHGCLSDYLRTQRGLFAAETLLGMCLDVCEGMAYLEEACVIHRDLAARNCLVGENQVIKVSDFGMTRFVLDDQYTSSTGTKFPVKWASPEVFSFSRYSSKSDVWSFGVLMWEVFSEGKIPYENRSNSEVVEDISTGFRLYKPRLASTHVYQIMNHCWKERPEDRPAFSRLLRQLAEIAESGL
Procedure: as §1

TEC = biological target: T2, TEC (Homo sapiens, UniProt P42680); assay: Inhibition of a panel of kinases, in vitro HotSpot kinase assay: TEC; conditions: for IC50: 1 μM ATP; for TEC* IC50 relative to Btk IC50 value: fold relative to Btk IC50 value
T2 sequence (P42680 1-631): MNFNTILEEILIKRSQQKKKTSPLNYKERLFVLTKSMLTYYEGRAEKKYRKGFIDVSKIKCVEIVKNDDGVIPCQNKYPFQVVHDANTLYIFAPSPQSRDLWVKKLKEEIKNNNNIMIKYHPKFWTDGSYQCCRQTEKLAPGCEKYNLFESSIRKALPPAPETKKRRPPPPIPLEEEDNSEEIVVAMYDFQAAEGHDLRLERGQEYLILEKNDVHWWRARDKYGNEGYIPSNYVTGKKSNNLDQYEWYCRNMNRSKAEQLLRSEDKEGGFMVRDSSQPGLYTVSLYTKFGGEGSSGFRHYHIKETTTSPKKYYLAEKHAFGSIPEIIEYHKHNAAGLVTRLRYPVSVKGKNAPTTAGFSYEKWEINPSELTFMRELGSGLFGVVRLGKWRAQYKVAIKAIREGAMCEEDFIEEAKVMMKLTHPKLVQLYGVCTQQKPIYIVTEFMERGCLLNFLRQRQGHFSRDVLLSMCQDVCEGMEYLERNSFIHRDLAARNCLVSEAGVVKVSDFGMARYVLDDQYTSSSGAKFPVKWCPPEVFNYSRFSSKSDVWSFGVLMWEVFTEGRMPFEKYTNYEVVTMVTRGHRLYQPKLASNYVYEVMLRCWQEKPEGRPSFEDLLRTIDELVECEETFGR
Procedure: as §1

TXK = biological target: T3, TXK (Homo sapiens, UniProt P42681); assay: Inhibition of a panel of kinases, in vitro HotSpot kinase assay: TXK; conditions: Table 15, C compounds; 1 μM ATP
T3 sequence (P42681 1-527): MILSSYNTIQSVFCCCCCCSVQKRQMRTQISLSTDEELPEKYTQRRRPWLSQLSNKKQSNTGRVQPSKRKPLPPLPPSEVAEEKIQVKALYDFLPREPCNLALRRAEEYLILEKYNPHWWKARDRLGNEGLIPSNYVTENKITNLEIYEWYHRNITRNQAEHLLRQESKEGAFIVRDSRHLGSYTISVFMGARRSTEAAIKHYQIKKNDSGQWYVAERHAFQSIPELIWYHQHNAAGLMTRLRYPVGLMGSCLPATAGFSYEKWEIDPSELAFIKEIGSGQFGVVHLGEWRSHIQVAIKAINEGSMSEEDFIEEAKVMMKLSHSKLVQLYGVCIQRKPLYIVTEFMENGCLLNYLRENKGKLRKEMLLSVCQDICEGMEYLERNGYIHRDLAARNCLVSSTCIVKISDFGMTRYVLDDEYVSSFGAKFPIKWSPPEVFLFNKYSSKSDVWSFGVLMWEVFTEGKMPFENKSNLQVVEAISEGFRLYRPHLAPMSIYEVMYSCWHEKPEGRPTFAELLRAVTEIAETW
Procedure: as §1

EGFR, sequence (P00533 25-1210): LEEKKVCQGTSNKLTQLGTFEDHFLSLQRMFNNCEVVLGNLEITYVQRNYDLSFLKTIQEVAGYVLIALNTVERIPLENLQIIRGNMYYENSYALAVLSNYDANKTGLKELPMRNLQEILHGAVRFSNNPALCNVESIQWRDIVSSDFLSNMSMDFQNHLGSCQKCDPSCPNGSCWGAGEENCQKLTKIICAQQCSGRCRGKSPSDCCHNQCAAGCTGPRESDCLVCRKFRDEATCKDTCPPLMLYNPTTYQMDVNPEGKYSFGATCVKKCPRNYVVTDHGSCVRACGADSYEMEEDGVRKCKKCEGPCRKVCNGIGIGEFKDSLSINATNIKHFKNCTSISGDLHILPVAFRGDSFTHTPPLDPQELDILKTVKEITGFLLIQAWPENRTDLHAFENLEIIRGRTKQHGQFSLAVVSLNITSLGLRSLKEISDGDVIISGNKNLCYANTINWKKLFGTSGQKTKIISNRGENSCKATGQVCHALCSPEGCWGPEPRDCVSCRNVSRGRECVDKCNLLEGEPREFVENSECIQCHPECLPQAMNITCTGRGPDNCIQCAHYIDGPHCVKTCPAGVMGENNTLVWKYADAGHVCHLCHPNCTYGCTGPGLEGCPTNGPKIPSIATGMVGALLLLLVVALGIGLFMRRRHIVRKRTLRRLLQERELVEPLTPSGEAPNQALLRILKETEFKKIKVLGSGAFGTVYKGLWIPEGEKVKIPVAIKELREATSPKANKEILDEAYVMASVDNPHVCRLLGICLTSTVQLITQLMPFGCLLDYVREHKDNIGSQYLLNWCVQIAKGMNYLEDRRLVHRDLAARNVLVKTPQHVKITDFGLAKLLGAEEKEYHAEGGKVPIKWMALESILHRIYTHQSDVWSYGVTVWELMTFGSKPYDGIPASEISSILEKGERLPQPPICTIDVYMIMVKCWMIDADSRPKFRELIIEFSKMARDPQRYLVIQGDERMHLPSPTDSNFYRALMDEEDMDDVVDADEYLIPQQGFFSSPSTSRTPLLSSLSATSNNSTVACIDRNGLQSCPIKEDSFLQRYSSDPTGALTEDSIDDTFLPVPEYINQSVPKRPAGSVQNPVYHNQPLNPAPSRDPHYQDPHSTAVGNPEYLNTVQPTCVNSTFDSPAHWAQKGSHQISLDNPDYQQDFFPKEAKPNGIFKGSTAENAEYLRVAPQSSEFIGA

Row | SMILES | IC50 (EGFR; Table 13, A compounds) [nM] | IC50 (ITK; Table 13, A compounds) [nM] | IC50 (TEC; Table 13, A compounds) [nM] | EGFR* IC50 relative to Btk IC50 value (EGFR) [x] | ITK* IC50 relative to Btk IC50 value (ITK) [x] | TEC* IC50 relative to Btk IC50 value (TEC) [x] | other results
1 | C[C@@H]1[C@H](NC(=O)N(C)C)CCCN1c1cnc(C(N)=O)c(Nc2ccc(C(=O)N3CCN(C)CC3)cc2)n1 [Example A-98, 5-[(2R,3R)-3-[(dimethylcarbamoyl)amino]-2-methylpiperidin-1-yl]-3-{[4-(4-methylpiperazine-1-carbonyl)phenyl]amino}pyrazine-2-carboxamide] | 1000 to 10000 | 1000 to 10000 | 100 to 1000 |  |  |  | 
2 | CN1CCN(c2ccc(Nc3nc(N4CCC[C@@H](n5ccc6cc(C7CC7)ccc6c5=O)C4)cnc3C(N)=O)cc2)CC1 [Example A-99, 5-[(3R)-3-(6-cyclo-propyl-1-oxo-1,2-dihydroisoquinolin-2-yl)piperidin-1-yl]-3-{[4-(4-methylpiperazin-1-yl)phenyl]amino}pyrazine-2-carboxamide] | > 10000 | 100 to 1000 | 10 to 100 |  |  |  | 
3 | C[C@@H]1[C@H](NC(=O)N(C)C)CCCN1c1cnc(C(N)=O)c(Nc2ccc(N3CCN(C)CC3)cc2)n1 [Example A-100, 5-[(2R,3R)-3-[(dimethylcarbamoyl)amino]-2-methylpiperidin-1-yl]-3-{[4-(4-methylpiperazin-1-yl)phenyl]amino}pyrazine-2-carboxamide] | 100 to 1000 | 100 to 1000 | 100 to 1000 |  |  |  | 
4 | Cc1c(Nc2nc(N3CCC[C@@H](NC(=O)c4ccc(C5CC5)cc4)[C@H]3C)cnc2C(N)=O)cnn1C [Example A-191, 5-((2R,3)R-3-(4-cyclopropylbenzamido)-2-methylpiperidin-1-yl)-3-(1,5-dimethyl-1H-pyrazol-4-ylamino)pyrazine-2-carboxamide] | 1000 to 10000 | > 10000 | 1000 to 10000 |  |  |  | 
5 | Cc1nn(C)cc1Nc1nc(N2CCC[C@@H](NC(=O)c3ccc(C4CC4)cc3)[C@H]2C)cnc1C(N)=O [Example A-192, 5-((2R,3R)-3-(4-cyclopropylbenzamido)-2-methylpiperidin-1-yl)-3-(1,3-dimethyl-1H-pyrazol-4-ylamino)pyrazine-2-carboxamide] | 1000 to 10000 | > 10000 | 1000 to 10000 |  |  |  | 
6 | C[C@@H]1[C@H](NC(=O)c2cc3c(n2C)CC(C)(C)C3)CCCN1c1cnc(C(N)=O)c(Nc2cnn(C)c2)n1 [Example A-193, N-((2R,3R)-1-(5-carbamoyl-6-(1-methyl-1H-pyrazol-4-ylamino)pyrazin-2-yl)-2-methylpiperidin-3-yl)-1,5,5-trimethyl-1,4,5,6-tetrahydrocyclo-penta[b]pyrrole-2-carboxamide] | 100 to 1000 | 100 to 1000 | 10 to 100 |  |  |  | 
7 | C[C@@H]1[C@H](NC(=O)c2ccc(C3CC3)cc2)CCCN1c1cnc(C(N)=O)c(Nc2cnn(C(F)F)c2)n1 [Example A-198, 5-[(2R,3R)-3-(4-cyclopropylbenzamido)-2-methylpiperidin-1-yl]-3-{[1-(difluoromethyl)-1H-pyrazol-4-yl]amino}pyrazine-2-carboxamide] |  |  |  | 1276 | 133 | 3 | 
8 | C[C@@H]1[C@H](NC(=O)c2ccc(C(C)(C)O)cc2)CCCN1c1cnc(C(N)=O)c(Nc2cnn(C)c2)n1 [Example A-200, 5-((2R,3R)-3-(4-(2-hydroxypropan-2-yl)benzamido)-2-methyl-piperidin-1-yl)-3-(1-methyl-1H-pyrazol-4-yl-amino)pyrazine-2-carboxamide] |  |  |  | 380 | 99 | 3 | 
9 | C[C@@H]1[C@H](NC(=O)c2ccc(C3CC3)cc2)CCCN1c1nnc(C(N)=O)c(Nc2cnn(C)c2)n1 [Example A-201, 3-[(2R,3R)-3-(4-cyclopropylbenzamido)-2-methylpiperidin-1-yl]-5-[(1-methyl-1H-pyrazol-4-yl)amino]-1,2,4-triazine-6-carboxamide] |  |  |  | 2962 | 234 | 8 | 
10 | Cn1cc(Nc2nc(N3CCC[C@@H](NC(=O)c4ccc(C5CC5)cc4)C3)nnc2C(N)=O)cn1 [Example A-202, 3-[(3R)-3-(4-cyclopropylbenzamido)piper-idin-1-yl]-5-[(1-methyl-1H-pyrazol-4-yl)amino]-1,2,4-triazine-6-carboxamide] |  |  |  | 5208 | 360 | 5 | 
11 | C[C@@H]1[C@H](NC(=O)c2ccc(C(C)(C)C)cc2)CCCN1c1cnc(C(N)=O)c(Nc2cnn(C)c2)n1 [Example A-203, 5-((2R,3R)-3-(4-tert-butylbenzamido)-2-methylpiperidin-1-yl)-3-(1-methyl-1H-pyrazol-4-ylamino)pyrazine-2-carboxamide] |  |  |  | 3304 | 787 | 8 | 
12 | C[C@@H]1[C@H](NC(=O)c2ccc(C3CC3)cc2)CCCN1c1cnc(C(N)=O)c(Nc2cnn(C3CC3)c2)n1 [Example A-205, 3-[(1-cyclopropyl-1H-pyrazol-4-yl)amino]-5-[(2R,3R)-3-(4-cyclopropylbenzamido)-2-methylpiperidin-1-yl]pyrazine-2-carboxamide] |  |  |  | 730 | 135 | 3 | 
13 | C[C@@H]1[C@H](NC(=O)c2ccc(C3COC3)cc2)CCCN1c1cnc(C(N)=O)c(Nc2cnn(C)c2)n1 [Example A-206, 3-(1-methyl-1H-pyrazol-4-ylamino)-5-((2R,3R)-2-methyl-3-(4-(oxetan-3-yl)benzamido)piperidin-1-yl)pyrazine-2-carboxamide] |  |  |  | 896 | 157 | 1 | 
14 | C=CC(=O)N1CCC[C@@H](Nc2nnc(C(N)=O)c(Nc3ccc(C(C)(C)C)cc3)n2)C1 [Example C-40, (R)-3-(1-acryloylpiperidin-3-ylamino)-5-(4-tert-butylphenylamino)-1,2,4-triazine-6-carboxamide] |  |  |  |  |  |  | IC50 (EGFR; Table 15, C compounds): ≤ 10 nM; IC50 (ITK; Table 15, C compounds): ≤ 10 nM; IC50 (TXK): ≤ 10 nM; IC50 (TEC; Table 15, C compounds): ≤ 10 nM
15 | C=CC(=O)N1CC[C@@H](N(C)c2nnc(C(N)=O)c(Nc3ccc(C(C)C)cc3)n2)C1 [Example C-41, (R)-3-((1-acryloylpyrrolidin-3-yl)(methyl)amino)-5-(4-isopropylphenylamino)-1,2,4-triazine-6-carboxamide] |  |  |  |  |  |  | IC50 (EGFR; Table 15, C compounds): ≤ 10 nM; IC50 (ITK; Table 15, C compounds): ≤ 10 nM; IC50 (TXK): ≤ 10 nM; IC50 (TEC; Table 15, C compounds): ≤ 10 nM
16 | C=CC(=O)N1CCC[C@@H](N(C)c2cnc(C(N)=O)c(Nc3ccc(C(C)C)cc3)n2)C1 [Example C-42, (R)-5-((1-acryloylpiperidin-3-yl)(methyl)amino)-3-(4-isopropylphenylamino) pyrazine-2-carboxamide] |  |  |  |  |  |  | IC50 (ITK; Table 15, C compounds): 10 to 100 nM; IC50 (TXK): ≤ 10 nM; IC50 (TEC; Table 15, C compounds): ≤ 10 nM
17 | C=CC(=O)N1CCC[C@@H](N(C)c2cnc(C(N)=O)c(Nc3ccc(C4(C)CCN(C5CCCC5)CC4)cc3)n2)C1 [Example C-44, (R)-5-((1-acryloylpiperidin-3-yl)(methyl)amino)-3-(4-(1-cyclopentyl-4-methylpiperidin-4-yl)phenylamino) pyrazine-2-carboxamide] |  |  |  |  |  |  | IC50 (EGFR; Table 15, C compounds): ≤ 10 nM; IC50 (ITK; Table 15, C compounds): ≤ 10 nM; IC50 (TXK): ≤ 10 nM; IC50 (TEC; Table 15, C compounds): ≤ 10 nM
